According to patent US8916567B2, “Certain crystalline hydrates, pharmaceutical compositions thereof and methods for preparation and use thereof” (Universal Technology Alliance, Inc., priority 2009, dated 2014):
Converted amounts (≈) assume the structure as drawn. Like-named read-outs stand apart in the source and are kept apart here.

Key:
Format in all cases: cell-based
[1] = system: Staphylococcus aureus MRSA; test: Minimum inhibitory concentration (MIC) in vitro, agar dilution method; conditions: for MIC: read-out: MIC
Text: (§1) Hydrates Samples: • The 1/2 hydrates prepared according to Example 2; • Content (purity % wt): 99.0%; • The 1/12 hydrates prepared according to Example 253; • Content (purity % wt): 98.9%; • The 2/7 hydrates prepared according to Example 106; • Content (purity % wt): 98.8%; • The 2/5 hydrates prepared according to Example 162; • Content (purity % wt): 99.0%; • The 3/4 hydrates prepared according to Example 337; • Content (purity % wt): 98.8%; • Preparation: dissolved in DMSO, and further diluted with sterile distilled water to desired concentration. • The hydrates samples were supplied by Sichuan Beilike Biotechnology LTD.
(§2) Anhydrous Sample: • The anhydrous compounds prepared according to Example 1. • Content (purity % wt): 98.6%; • Preparation: dissolved in DMSO, and further diluted with sterile distilled water to desired concentration; • The anhydrous sample was supplied by Sichuan Beilike Biotechnology LTD.
(§3) Control Samples • Vancomycin: provided by Sichuan Beilike Biotechnology LTD, purchased from Eli Lilly Japan K.K. • Lot No.: WM16151 (production date: Apr. 10, 2007, expiration date: Apr. 9, 2009). • Specification: 500 mg/bottle; solubility (physicochemical properties): soluble in water. • Linezolid (LZ): provided by Sichuan Beilike Biotechnology LTD.
(§4) Bacteria Strains • Clinically isolated strains: clinically isolated bacterial pathogens collected in Sichuan and Beijing areas from March 2007 to May 2008. • Species include: Staphylococcus aureus MRSA, Staphylococcus aureus MSSA, S. epidermidis MRSE, S. epidermidis MSSE, E. feacalis, and E. feacium, a total of 51 strains. • Quality control strains: Staphylococcus aureus […] strain kept in Sichuan Industrial Institute of Antibiotics, purchased from the medical testing center of the Ministry of Health, China.
(§5) Experimental Method: • Measurement of the minimum inhibitory concentration (MIC) in vitro: • The minimum inhibitory concentration (MIC) of each test sample against test strains was measured by using the agar dilution method recommended by the U.S. National Committee for Clinical Laboratory Standards (CLSI/NCCIs).
(§6) Based on the CLSI/NCCL's testing standard with respect to vancomycin and linezolid (see Table 6), the minimum inhibitory concentration (MIC) values of every strain were reported, and the MIC50 (the concentration that inhibits 50% of the different strains of bacteria), MIC90 (the concentration that inhibits 90% of the different strains of bacteria), and MICrange (the range of the MIC value of the tested strains) were observed.

[2] = system: S. epidermidis MRSE; test: as above; conditions: for MIC: read-out: MIC
Text: as §1, §2, §3, §4, §5, §6

[3] = system: E. feacium; test: as above
Text: as §1, §2, §3, §4, §5, §6

[4] = system: Staphylococcus aureus MSSA; test: as above; conditions: for MIC: read-out: MIC
Text: as §1, §2, §3, §4, §5, §6

[5] = system: E. feacalis; test: as above
Text: as §1, §2, §3, §4, §5, §6

[6] = system: S. epidermidis MSSE; test: as above; conditions: for MIC: read-out: MIC
Text: as §1, §2, §3, §4, §5, §6

[7] = system: Staphylococcus aureus; test: Minimum inhibitory concentration (MIC) in vitro, agar dilution method, quality control strain; conditions: Staphylococcus aureus, ATCC27853, strain S. AT C C25923 (Table 7 No. 1); read-out: MIC
Text: as §1, §2, §3, §4, §5, §6

In the case of `CC(=O)NC[C@H]1CN(c2ccc(N3CCOCC3)c(F)c2)C(=O)O1` [Linezolid, reference compound], the MICrange ([1]; S. MRSA (10 strains), clinically isolated) is reported as 1 to 2 µg/mL, the MIC50 ([1]; Staphylococcus aureus, MRSA, S. MRSA (10 strains), clinically isolated, read-out: MIC50) is reported as 2 µg/mL (≈ 5.93 µM) and the MIC90 ([1]; Staphylococcus aureus, MRSA, S. MRSA (10 strains), clinically isolated, read-out: MIC90) is reported as 2 µg/mL (≈ 5.93 µM). For the same compound, the MIC ([1]; Staphylococcus aureus, MRSA, strain S. MRSA 29 (Table 7 No. 15)) was 1 µg/mL (≈ 2.96 µM), the MIC ([1]; Staphylococcus aureus, MRSA, strain S. MRSA 101 (Table 7 No. 14)) was 1 µg/mL (≈ 2.96 µM) and the MIC ([1]; Staphylococcus aureus, MRSA, strain S. MRSA 201 (Table 7 No. 13)) was 2 µg/mL (≈ 5.93 µM). The MIC ([1]; Staphylococcus aureus, MRSA, strain S. MRSA B27 (Table 7 No. 21)) was 2 µg/mL (≈ 5.93 µM), the MIC ([1]; Staphylococcus aureus, MRSA, strain S. MRSA B105 (Table 7 No. 17)) was 2 µg/mL (≈ 5.93 µM) and the MIC ([1]; Staphylococcus aureus, MRSA, strain S. MRSA B143 (Table 7 No. 19)) was 1 µg/mL (≈ 2.96 µM). For the same compound, the MIC ([1]; Staphylococcus aureus, MRSA, strain S. MRSA B151 (Table 7 No. 20)) was 2 µg/mL (≈ 5.93 µM), the MIC ([1]; Staphylococcus aureus, MRSA, strain S. MRSA B164 (Table 7 No. 16)) was 2 µg/mL (≈ 5.93 µM) and the MIC ([1]; Staphylococcus aureus, MRSA, strain S. MRSA B199 (Table 7 No. 22)) was 2 µg/mL (≈ 5.93 µM). For the same compound, the MIC ([1]; Staphylococcus aureus, MRSA, strain S. MRSA B617 (Table 7 No. 18)) was 1 µg/mL (≈ 2.96 µM), the MICrange ([2]; S. ep MRSE (10 strains), clinically isolated) was 0.5 to 2 µg/mL and the MIC50 ([2]; Staphylococcus epidermidis, MRSE, S. ep MRSE (10 strains), clinically isolated, read-out: MIC50) was 1 µg/mL (≈ 2.96 µM). It also gave an MIC90 ([2]; Staphylococcus epidermidis, MRSE, S. ep MRSE (10 strains), clinically isolated, read-out: MIC90) of 2 µg/mL (≈ 5.93 µM), an MIC ([2]; Staphylococcus epidermidis, MRSE, strain S. ep MRSE4 (Table 8 No. 9)) of 1 µg/mL (≈ 2.96 µM) and an MIC ([2]; Staphylococcus epidermidis, MRSE, strain S. ep MRSE20 (Table 8 No. 6)) of 1 µg/mL (≈ 2.96 µM). The MIC ([2]; Staphylococcus epidermidis, MRSE, strain S. ep MRSE87 (Table 8 No. 13)) was 2 µg/mL (≈ 5.93 µM), the MIC ([2]; Staphylococcus epidermidis, MRSE, strain S. ep MRSE90 (Table 8 No. 10)) was 2 µg/mL (≈ 5.93 µM) and the MIC ([2]; Staphylococcus epidermidis, MRSE, strain S. ep MRSE101 (Table 8 No. 7)) was 0.5 µg/mL (≈ 1.48 µM). The MIC ([2]; Staphylococcus epidermidis, MRSE, strain S. ep MRSE105 (Table 8 No. 11)) was 1 µg/mL (≈ 2.96 µM), the MIC ([2]; Staphylococcus epidermidis, MRSE, strain S. ep MRSE140 (Table 8 No. 14)) was 1 µg/mL (≈ 2.96 µM) and the MIC ([2]; Staphylococcus epidermidis, MRSE, strain S. ep MRSE142 (Table 8 No. 12)) was 1 µg/mL (≈ 2.96 µM). The MIC ([2]; Staphylococcus epidermidis, MRSE, strain S. ep MRSE210 (Table 8 No. 15)) was 1 µg/mL (≈ 2.96 µM), the MIC ([2]; Staphylococcus epidermidis, MRSE, strain S. ep MRSE211 (Table 8 No. 8)) was 1 µg/mL (≈ 2.96 µM) and the MIC50 [3] was 2 µg/mL (≈ 5.93 µM). The MIC90 [3] was 4 µg/mL (≈ 11.9 µM), the MICrange ([3]; E. feacium (5 strains), clinically isolated) was 1 to 4 µg/mL and the MIC ([3]; strain Efm 98 (Table 8 No. 21)) was 1 µg/mL (≈ 2.96 µM). For the same compound, the MIC ([3]; strain Efm 171 (Table 8 No. 25)) was 2 µg/mL (≈ 5.93 µM), the MIC ([3]; strain Efm 197 (Table 8 No. 22)) was 2 µg/mL (≈ 5.93 µM) and the MIC ([3]; strain Efm N3 (Table 8 No. 23)) was 1 µg/mL (≈ 2.96 µM). It also gave an MIC ([3]; strain Efm N4 (Table 8 No. 24)) of 4 µg/mL (≈ 11.9 µM), an MICrange ([4]; S. MSSA (11 strains), clinically isolated) of 1 to 2 µg/mL and an MIC50 ([4]; Staphylococcus aureus, MSSA, S. MSSA (11 strains), clinically isolated, read-out: MIC50) of 2 µg/mL (≈ 5.93 µM). The MIC90 ([4]; Staphylococcus aureus, MSSA, S. MSSA (11 strains), clinically isolated, read-out: MIC90) was 2 µg/mL (≈ 5.93 µM), the MIC ([4]; Staphylococcus aureus, MSSA, strain S. MSSA 123 (Table 7 No. 3)) was 2 µg/mL (≈ 5.93 µM) and the MIC ([4]; Staphylococcus aureus, MSSA, strain S. MSSA 187 (Table 7 No. 7)) was 2 µg/mL (≈ 5.93 µM). For the same compound, the MIC ([4]; Staphylococcus aureus, MSSA, strain S. MSSA 195 (Table 7 No. 6)) was 2 µg/mL (≈ 5.93 µM), the MIC ([4]; Staphylococcus aureus, MSSA, strain S. MSSA 195 (Table 7 No. 12)) was 2 µg/mL (≈ 5.93 µM) and the MIC ([4]; Staphylococcus aureus, MSSA, strain S. MSSA 201 (Table 7 No. 11)) was 2 µg/mL (≈ 5.93 µM). It also gave an MIC ([4]; Staphylococcus aureus, MSSA, strain S. MSSA 232 (Table 7 No. 2)) of 2 µg/mL (≈ 5.93 µM), an MIC ([4]; Staphylococcus aureus, MSSA, strain S. MSSA 275 (Table 7 No. 10)) of 2 µg/mL (≈ 5.93 µM) and an MIC ([4]; Staphylococcus aureus, MSSA, strain S. MSSA 466 (Table 7 No. 8)) of 1 µg/mL (≈ 2.96 µM). The MIC ([4]; Staphylococcus aureus, MSSA, strain S. MSSA 519 (Table 7 No. 9)) was 2 µg/mL (≈ 5.93 µM), the MIC ([4]; Staphylococcus aureus, MSSA, strain S. MSSA 520 (Table 7 No. 4)) was 2 µg/mL (≈ 5.93 µM) and the MIC ([4]; Staphylococcus aureus, MSSA, strain S. MSSA 580 (Table 7 No. 5)) was 2 µg/mL (≈ 5.93 µM). The MIC50 [5] was 1 µg/mL (≈ 2.96 µM), the MIC90 [5] was 2 µg/mL (≈ 5.93 µM) and the MICrange ([5]; E. feacalis (5 strains), clinically isolated) was 1 to 2 µg/mL. It also gave an MIC ([5]; strain Efa 54 (Table 8 No. 20)) of 1 µg/mL (≈ 2.96 µM), an MIC ([5]; strain Efa 116 (Table 8 No. 16)) of 1 µg/mL (≈ 2.96 µM) and an MIC ([5]; strain Efa 907 (Table 8 No. 19)) of 1 µg/mL (≈ 2.96 µM). It also gave an MIC ([5]; strain Efa 3006 (Table 8 No. 18)) of 1 µg/mL (≈ 2.96 µM), an MIC ([5]; strain Efa 33748 (Table 8 No. 17)) of 2 µg/mL (≈ 5.93 µM) and an MICrange ([6]; S. ep MSSE (10 strains), clinically isolated) of 0.5 to 2 µg/mL. The MIC50 ([6]; Staphylococcus epidermidis, S. ep MSSE (10 strains), clinically isolated, read-out: MIC50) was 1 µg/mL (≈ 2.96 µM), the MIC90 ([6]; Staphylococcus epidermidis, S. ep MSSE (10 strains), clinically isolated, read-out: MIC90) was 2 µg/mL (≈ 5.93 µM) and the MIC ([6]; Staphylococcus epidermidis, strain S. ep MSSE87 (Table 7 No. 23)) was 0.5 µg/mL (≈ 1.48 µM). It also gave an MIC ([6]; Staphylococcus epidermidis, strain S. ep MSSE88 (Table 8 No. 5)) of 2 µg/mL (≈ 5.93 µM), an MIC ([6]; Staphylococcus epidermidis, strain S. ep MSSE113 (Table 7 No. 24)) of 1 µg/mL (≈ 2.96 µM) and an MIC ([6]; Staphylococcus epidermidis, strain S. ep MSSE116 (Table 7 No. 25)) of 0.5 µg/mL (≈ 1.48 µM). For the same compound, the MIC ([6]; Staphylococcus epidermidis, strain S. ep MSSE118 (Table 8 No. 2)) was 2 µg/mL (≈ 5.93 µM), the MIC ([6]; Staphylococcus epidermidis, strain S. ep MSSE119 (Table 7 No. 27)) was 1 µg/mL (≈ 2.96 µM) and the MIC ([6]; Staphylococcus epidermidis, strain S. ep MSSE137 (Table 8 No. 4)) was 2 µg/mL (≈ 5.93 µM). The MIC ([6]; Staphylococcus epidermidis, strain S. ep MSSE140 (Table 8 No. 3)) was 2 µg/mL (≈ 5.93 µM), the MIC ([6]; Staphylococcus epidermidis, strain S. ep MSSE142 (Table 7 No. 26)) was 1 µg/mL (≈ 2.96 µM) and the MIC ([6]; Staphylococcus epidermidis, strain S. ep MSSE153 (Table 8 No. 1)) was 1 µg/mL (≈ 2.96 µM). It also gave an MIC [7] of 2 µg/mL (≈ 5.93 µM).
